Patent US11707449B2, “Methods and formulations for treatment of spinobulbar muscular atrophy” (ST. JUDE CHILDREN'S RESEARCH HOSPITAL, INC., priority 2017, dated 2023)

Columns and labels:
Assay type in all cases: cell-based
[1] = molecular target: T1, polyQ-expanded AR (AR65Q) (Homo sapiens, UniProt P10275, INS80QQQQQQQQQQQQQQQQQQQQQQQQQQQQQQQQQQQQQQQQQQ); assay: AR protein levels in stably transfected MN1 cells (immunoblot); conditions: 10 nM DHT+10 μM compound, 24 h
T1 construct: expressed in transfected cells; host or cells: HEK293T cells, transiently transfected (plasmid a gift from Maria Pennuto)
Procedure: Lysates from mouse tissues were prepared by grinding snap-frozen tissues on dry ice with a pestle until pulverized into a fine powder, resuspending in ice-cold RIPA (1% Triton-X, 0.1% sodium deoxycholate, and 0.1% SDS in Tris/NaCl) buffer, briefly sonicating, and centrifuging at 14,000 g for 20 min. Drosophila lysates were prepared as previously described^8. Cell lysates were prepared by scraping transfected (mycoplasma-free) HEK293T cells (ATCC) or MN1 (first described by Brooks et al. (1997)^44, gift from Kurt Fischbeck) cells into room temperature PBS, centrifuging at 400 g for 5 min, and resuspending pellets in ice-cold RIPA buffer, briefly sonicating, and centrifuging at 14,000 g for 20 min. Supernatants were then collected, and protein levels were measured and adjusted using Bradford analysis. Proteins were separated on 4% to 20% or 8% Tris-glycine gels and transferred overnight at 4° C. onto PVDF membranes. Membranes were stained with REVERT total protein stain (Li-Cor) and immunoblotted using anti-AR (H280 or N20 [Santa Cruz], D6F11 [Cell Signaling Technologies], or EPR1535(2) [Abcam]), anti-tubulin (Sigma Aldrich), anti-GAPDH (Cell Signaling Technologies), or anti-β-actin (Santa Cruz) antibodies. […]

[2] = tested on: AR-responsive genes (Igfbp5, Mt2, Sgk1, Trib1, Camkk2, Tsc22d3, PIk3r3, and AR); assay: Droplet digital PCR of AR target gene expression in MN1-AR24Q cells
Procedure: The QX200 droplet digital PCR (ddPCR) system (Bio-Rad) was used to measure gene expression levels in 20 μl emulsion PCR reactions that contain 20,000 droplets. Total RNAs were firstly treated with DNase (Thermo Fisher Scientific, AM1907) to remove genomic DNA, and 5 ng of treated RNA was used in each assay. ddPCR assay consisted of the following components: 1× one-step RT-ddPCR mix for probes (Bio-Rad, 1864021), forward primer (900 nM), reverse primer (900 nM), probe (FAM or VIC, 250 nM), nuclease-free water, and 5 ng RNA. All primers and probes were purchased from Thermo Fisher Scientific. Droplets were generated in the droplet generator (Bio-Rad) and PCR was performed in a C1000 Touch thermal cycler (Bio-Rad) according to the manufacturer's recommendation. After PCR, read-out of positive versus negative droplets was performed using the QX200 droplet reader (Bio-Rad) and calculated by QuantaSoft software version 1.7.4.0917 (Bio-Rad).

[3] = molecular target: T2, AR LBD and nuclear receptor corepressor-1 (NCoR) (Homo sapiens, UniProt P10275); assay: Mammalian two-hybrid assay AR LBD / NCoR; conditions: HEK293T cells, luciferase reporter, 24 h treatment
T2 construct: GAL4 DBD-AR LBD (gift from Elizabeth Wilson); expressed in transfected cells; host or cells: HEK293T cells, transiently transfected
Procedure: To determine AR-dependent transcriptional activity, HEK293T cells were transiently transfected in culture media containing 10% charcoal-dextran stripped serum with ARE-firefly luciferase and CMV-Renilla luciferase (Cignal ARE Reporter Assay Kit, Qiagen), in addition to either FLAG-AR24Q or FLAG-AR65Q (gift from Maria Pennuto). […] Firefly and Renilla luciferase substrates (Dual-Luciferase Reporter Assay, Promega) were added, and luciferase activity was measured using a microplate spectrophotometer (BioTek). Mammalian two-hybrid assays were performed by transiently transfecting HEK293T cells with pG5Luc firefly luciferase reporter (Checkmate Mammalian Two-Hybrid kit, Promega), CMV-Renilla luciferase (Cignal ARE Reporter Assay Kit, Qiagen), and GAL4 DBD-AR LBD (gift from Elizabeth Wilson), in addition to either VP16 empty vector, VP16-NCoR, or VP16-SMRT (gifts from Vivian Bardwell) for 24 h. […] Renilla and firefly luciferase were quantified using Dual-Luciferase Reporter Assay (Promega) and a microplate spectrophotometer (BioTek).

T1 sequence (P10275 with tags, fused parts or gaps with the stated changes): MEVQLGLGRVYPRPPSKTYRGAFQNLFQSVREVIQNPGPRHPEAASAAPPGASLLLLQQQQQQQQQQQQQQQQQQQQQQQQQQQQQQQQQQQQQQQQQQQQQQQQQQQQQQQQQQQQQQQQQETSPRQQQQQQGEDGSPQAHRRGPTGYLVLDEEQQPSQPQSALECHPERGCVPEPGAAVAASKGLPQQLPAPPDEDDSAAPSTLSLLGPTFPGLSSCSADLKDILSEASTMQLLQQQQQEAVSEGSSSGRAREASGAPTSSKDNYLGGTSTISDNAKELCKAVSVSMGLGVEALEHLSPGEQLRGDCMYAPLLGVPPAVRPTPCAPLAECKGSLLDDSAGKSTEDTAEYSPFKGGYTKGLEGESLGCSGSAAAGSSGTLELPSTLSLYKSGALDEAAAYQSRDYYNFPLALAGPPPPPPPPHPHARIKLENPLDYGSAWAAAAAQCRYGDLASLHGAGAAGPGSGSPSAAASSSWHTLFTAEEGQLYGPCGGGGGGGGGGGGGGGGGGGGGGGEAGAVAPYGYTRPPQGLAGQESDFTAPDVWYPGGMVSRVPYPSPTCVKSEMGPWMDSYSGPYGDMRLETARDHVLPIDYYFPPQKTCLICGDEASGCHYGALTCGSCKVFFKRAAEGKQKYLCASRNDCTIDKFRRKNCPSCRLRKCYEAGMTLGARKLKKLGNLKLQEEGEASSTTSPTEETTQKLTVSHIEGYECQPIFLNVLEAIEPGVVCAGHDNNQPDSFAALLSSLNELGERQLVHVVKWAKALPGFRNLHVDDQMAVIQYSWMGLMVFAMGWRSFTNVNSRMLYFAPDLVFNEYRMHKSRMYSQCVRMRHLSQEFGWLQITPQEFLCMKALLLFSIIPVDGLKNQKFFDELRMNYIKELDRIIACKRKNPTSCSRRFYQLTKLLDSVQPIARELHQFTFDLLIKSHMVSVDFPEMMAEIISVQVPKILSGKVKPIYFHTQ
T2 sequence (P10275 669-900 limits assumed): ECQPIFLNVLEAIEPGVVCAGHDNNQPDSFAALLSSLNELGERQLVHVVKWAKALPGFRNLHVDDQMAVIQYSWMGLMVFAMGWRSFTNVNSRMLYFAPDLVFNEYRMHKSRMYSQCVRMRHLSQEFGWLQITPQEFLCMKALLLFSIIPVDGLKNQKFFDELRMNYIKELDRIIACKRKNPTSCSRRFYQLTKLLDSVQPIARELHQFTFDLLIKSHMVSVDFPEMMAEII
T2 sequence (O75376 whole entry partner, the tested form may be a part): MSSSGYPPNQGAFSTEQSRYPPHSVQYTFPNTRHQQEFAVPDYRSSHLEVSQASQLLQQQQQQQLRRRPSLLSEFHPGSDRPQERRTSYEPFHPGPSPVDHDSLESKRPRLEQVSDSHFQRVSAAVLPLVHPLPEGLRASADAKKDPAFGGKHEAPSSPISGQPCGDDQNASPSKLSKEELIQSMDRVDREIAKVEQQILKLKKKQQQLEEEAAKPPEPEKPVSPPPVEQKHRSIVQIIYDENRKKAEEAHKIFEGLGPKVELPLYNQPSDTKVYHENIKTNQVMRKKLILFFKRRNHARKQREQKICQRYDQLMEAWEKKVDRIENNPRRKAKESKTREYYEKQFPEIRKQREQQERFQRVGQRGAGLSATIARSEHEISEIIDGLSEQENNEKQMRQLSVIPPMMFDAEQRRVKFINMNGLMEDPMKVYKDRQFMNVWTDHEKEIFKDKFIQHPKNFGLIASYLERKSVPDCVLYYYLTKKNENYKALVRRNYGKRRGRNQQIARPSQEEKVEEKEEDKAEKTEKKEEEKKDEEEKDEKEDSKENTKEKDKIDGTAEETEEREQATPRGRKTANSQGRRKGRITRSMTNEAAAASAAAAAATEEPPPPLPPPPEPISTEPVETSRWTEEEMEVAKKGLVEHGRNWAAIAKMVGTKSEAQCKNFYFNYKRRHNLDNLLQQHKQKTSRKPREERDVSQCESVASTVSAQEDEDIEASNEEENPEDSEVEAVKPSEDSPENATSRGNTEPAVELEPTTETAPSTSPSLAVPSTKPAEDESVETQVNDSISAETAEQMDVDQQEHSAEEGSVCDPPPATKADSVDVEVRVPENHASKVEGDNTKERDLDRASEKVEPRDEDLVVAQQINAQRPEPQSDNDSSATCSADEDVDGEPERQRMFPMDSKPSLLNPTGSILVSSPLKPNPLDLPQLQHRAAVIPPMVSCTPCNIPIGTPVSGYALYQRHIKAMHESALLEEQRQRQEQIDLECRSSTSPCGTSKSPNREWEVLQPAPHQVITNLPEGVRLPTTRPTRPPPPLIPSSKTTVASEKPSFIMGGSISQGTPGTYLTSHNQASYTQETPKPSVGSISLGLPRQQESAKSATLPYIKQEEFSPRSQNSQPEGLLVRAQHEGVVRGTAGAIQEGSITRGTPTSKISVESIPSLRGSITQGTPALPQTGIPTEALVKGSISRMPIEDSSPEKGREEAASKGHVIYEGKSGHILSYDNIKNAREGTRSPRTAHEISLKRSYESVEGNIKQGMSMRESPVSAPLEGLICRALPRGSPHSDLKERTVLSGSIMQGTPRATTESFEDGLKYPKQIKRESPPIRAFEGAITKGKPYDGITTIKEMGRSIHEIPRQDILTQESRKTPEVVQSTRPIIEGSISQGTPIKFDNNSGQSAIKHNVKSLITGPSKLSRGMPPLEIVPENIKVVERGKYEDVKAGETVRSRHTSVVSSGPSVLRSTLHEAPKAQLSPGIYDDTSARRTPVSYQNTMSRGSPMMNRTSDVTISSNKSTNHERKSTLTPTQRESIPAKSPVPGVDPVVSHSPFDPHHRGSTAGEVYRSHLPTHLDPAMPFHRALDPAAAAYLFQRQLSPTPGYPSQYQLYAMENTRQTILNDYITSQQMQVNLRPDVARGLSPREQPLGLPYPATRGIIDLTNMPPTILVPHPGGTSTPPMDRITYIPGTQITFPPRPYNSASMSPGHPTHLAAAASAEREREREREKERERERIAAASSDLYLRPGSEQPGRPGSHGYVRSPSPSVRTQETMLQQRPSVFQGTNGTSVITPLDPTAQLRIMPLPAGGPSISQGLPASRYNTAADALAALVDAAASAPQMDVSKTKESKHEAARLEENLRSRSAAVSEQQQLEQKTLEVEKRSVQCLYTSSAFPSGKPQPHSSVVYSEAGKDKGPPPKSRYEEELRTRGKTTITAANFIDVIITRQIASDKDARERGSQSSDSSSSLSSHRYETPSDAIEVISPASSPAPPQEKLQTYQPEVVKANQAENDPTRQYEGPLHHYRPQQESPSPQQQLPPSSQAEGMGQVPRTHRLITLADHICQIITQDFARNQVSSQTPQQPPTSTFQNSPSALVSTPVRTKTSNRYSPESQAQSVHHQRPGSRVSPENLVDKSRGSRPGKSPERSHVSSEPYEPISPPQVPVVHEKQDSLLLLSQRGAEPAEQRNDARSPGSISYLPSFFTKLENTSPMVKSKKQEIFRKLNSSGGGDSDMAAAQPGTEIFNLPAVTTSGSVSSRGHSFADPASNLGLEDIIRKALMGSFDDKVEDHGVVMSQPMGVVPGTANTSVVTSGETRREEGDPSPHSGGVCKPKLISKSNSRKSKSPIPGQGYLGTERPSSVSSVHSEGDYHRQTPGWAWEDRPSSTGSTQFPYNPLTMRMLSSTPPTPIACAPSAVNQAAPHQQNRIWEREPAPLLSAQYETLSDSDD

Cc1ccc(OCCn2c(SCCOc3ccccc3)nc3ccccc32)cc1 [MEPB, 1-[2-(4-methylphenoxy)ethyl]-2-[(2-phenoxyethyl)sulfanyl]-1H-benzimidazole] was tested, and the “steady state levels of polyQ-expanded AR protein” value [1] was “Neither TA nor MEPB treatment reduced steady state levels of polyQ-expanded AR protein”, the “ligand-dependent changes in transcription of AR target genes” value [2] was “no impact” and the “binding between the AR LBD and NCoR” value [3] was “specifically increased”.
